Measurements: US7713958B2, “Compounds and compositions as protein kinase inhibitors” (IRM LLC, priority 2003, dated 2010)

Assays:
Format in all cases: biochemical
[1] = target: c-src (Homo sapiens, UniProt P12931); test: Kinase inhibition at 10 μM, c-src; settings: 10 μM of Compound; read-out: Percentage Inhibition of c-src
[2] = target: c-Abl (Homo sapiens, UniProt P00519); test: Kinase inhibition at 10 μM, c-Abl; settings: 10 μM of Compound; read-out: Percentage Inhibition of c-Abl
[3] = target: c-Kit (Homo sapiens, UniProt P10721); test: Kinase inhibition at 10 μM, c-Kit; settings: 10 μM of Compound; read-out: Percentage Inhibition of c-Kit
[4] = target: T1, Flt-3 (Homo sapiens, UniProt P36888); test: Kinase inhibition at 10 μM, Flt-3; settings: 10 μM of Compound; read-out: Percentage Inhibition of Flt-3
T1 sequence (P36888 27-993): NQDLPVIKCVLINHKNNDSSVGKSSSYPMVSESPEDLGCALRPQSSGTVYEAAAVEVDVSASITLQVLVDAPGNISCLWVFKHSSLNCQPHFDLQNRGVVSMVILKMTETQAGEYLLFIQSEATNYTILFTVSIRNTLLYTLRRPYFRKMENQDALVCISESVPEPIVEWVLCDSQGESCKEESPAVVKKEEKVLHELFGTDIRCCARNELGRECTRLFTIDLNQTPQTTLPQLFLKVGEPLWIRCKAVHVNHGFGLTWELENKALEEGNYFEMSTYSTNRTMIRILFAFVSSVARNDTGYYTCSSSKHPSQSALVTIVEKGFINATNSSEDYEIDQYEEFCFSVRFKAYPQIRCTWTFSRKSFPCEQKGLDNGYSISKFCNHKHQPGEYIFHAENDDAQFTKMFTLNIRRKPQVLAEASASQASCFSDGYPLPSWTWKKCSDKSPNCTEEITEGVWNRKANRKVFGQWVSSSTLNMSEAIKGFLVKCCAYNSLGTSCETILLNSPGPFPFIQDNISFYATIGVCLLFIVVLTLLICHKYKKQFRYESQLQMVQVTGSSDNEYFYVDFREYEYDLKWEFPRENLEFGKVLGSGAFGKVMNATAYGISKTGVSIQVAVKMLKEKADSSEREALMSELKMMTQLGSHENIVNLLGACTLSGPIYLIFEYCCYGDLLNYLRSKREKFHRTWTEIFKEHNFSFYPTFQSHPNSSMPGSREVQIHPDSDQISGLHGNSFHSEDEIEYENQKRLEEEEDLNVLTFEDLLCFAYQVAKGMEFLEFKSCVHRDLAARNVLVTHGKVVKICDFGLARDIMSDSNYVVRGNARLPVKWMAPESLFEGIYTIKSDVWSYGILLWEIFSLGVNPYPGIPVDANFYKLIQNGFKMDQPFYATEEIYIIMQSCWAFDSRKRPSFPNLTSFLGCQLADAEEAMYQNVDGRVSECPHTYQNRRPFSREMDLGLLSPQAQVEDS

[5] = target: Flt-1 (Homo sapiens, UniProt P17948); test: Kinase inhibition at 10 μM, Flt-1; settings: 10 μM of Compound; read-out: Percentage Inhibition of Flt-1
[6] = target: Tek (Homo sapiens, UniProt Q02763); test: Kinase inhibition at 10 μM, Tek; settings: 10 μM of Compound; read-out: Percentage Inhibition of Tek
[7] = target: IGF-1R (Homo sapiens, UniProt P08069); test: Kinase inhibition at 10 μM, IGF-1R; settings: 10 μM of Compound; read-out: Percentage Inhibition of IGF-1R
[8] = target: CDK1 (Homo sapiens, UniProt P06493); test: Kinase inhibition at 10 μM, CDK1; settings: 10 μM of Compound; read-out: Percentage Inhibition of CDK1
[9] = target: PDGFR-β (Homo sapiens, UniProt P09619); test: Kinase inhibition at 10 μM, PDGFR-β; settings: 10 μM of Compound; read-out: Percentage Inhibition of PDGFR-β
[10] = target: KDR (Homo sapiens, UniProt P35968); test: Kinase inhibition at 10 μM, KDR; settings: 10 μM of Compound; read-out: Percentage Inhibition of KDR
[11] = target: FGFR-1 (Homo sapiens, UniProt P11362); test: Kinase inhibition at 10 μM, FGFR-1; settings: 10 μM of Compound; read-out: Percentage Inhibition of FGFR-1
[12] = target: c-Met (Homo sapiens, UniProt P08581); test: Kinase inhibition at 10 μM, c-Met; settings: 10 μM of Compound; read-out: Percentage Inhibition of c-Met

Chain of CDK1 (P06493 whole entry, species assumed): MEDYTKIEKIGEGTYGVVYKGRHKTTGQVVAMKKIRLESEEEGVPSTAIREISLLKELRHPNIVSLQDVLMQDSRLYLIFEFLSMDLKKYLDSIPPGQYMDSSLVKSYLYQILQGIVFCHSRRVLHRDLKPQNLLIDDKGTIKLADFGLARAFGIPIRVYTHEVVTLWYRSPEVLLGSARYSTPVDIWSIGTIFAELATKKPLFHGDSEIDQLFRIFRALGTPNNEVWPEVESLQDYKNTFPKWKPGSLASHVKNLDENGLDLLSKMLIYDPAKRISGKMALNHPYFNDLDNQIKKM
Chain of CDK1 (P14635 whole entry partner, species assumed): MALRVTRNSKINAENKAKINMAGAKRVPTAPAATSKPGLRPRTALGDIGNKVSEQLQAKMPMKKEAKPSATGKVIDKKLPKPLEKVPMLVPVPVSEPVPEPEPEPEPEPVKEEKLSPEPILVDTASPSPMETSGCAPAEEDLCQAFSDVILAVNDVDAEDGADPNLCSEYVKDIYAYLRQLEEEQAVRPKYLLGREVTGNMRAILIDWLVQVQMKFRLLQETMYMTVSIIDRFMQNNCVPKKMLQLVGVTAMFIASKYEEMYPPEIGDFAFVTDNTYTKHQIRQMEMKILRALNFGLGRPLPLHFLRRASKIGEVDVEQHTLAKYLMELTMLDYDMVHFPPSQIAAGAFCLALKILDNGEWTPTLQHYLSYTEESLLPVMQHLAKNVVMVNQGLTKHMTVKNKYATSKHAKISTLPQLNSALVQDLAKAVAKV
Chain of Tek (Q02763 23-1124, species assumed): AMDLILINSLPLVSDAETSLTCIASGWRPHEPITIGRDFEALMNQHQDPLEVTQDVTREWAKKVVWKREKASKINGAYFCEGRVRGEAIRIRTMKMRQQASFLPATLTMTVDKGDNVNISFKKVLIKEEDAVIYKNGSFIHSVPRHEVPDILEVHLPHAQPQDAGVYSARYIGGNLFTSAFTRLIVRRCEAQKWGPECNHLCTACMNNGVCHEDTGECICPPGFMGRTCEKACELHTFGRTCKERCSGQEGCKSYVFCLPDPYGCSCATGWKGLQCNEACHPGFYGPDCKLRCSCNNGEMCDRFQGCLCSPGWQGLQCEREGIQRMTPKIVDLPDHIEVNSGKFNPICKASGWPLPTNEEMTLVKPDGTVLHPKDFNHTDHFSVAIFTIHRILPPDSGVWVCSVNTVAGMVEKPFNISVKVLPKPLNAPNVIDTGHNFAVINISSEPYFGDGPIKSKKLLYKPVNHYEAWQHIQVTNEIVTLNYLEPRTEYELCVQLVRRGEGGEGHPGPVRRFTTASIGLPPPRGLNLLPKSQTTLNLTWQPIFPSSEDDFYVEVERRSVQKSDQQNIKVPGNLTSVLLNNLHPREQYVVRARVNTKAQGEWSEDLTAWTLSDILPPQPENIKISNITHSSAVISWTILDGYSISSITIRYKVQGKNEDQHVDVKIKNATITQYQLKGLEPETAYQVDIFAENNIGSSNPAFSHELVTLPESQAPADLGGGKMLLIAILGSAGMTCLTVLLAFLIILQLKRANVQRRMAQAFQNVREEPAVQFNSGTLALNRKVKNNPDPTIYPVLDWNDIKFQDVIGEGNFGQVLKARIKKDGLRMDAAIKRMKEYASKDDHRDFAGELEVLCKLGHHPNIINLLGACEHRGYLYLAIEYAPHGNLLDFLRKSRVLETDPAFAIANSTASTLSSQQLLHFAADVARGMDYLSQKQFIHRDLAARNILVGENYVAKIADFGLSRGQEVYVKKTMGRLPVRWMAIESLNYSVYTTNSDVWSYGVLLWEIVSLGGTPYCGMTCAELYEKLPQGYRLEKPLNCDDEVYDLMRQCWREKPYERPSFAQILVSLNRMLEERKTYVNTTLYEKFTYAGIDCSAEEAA
Chain of c-src (P12931 whole entry, species assumed): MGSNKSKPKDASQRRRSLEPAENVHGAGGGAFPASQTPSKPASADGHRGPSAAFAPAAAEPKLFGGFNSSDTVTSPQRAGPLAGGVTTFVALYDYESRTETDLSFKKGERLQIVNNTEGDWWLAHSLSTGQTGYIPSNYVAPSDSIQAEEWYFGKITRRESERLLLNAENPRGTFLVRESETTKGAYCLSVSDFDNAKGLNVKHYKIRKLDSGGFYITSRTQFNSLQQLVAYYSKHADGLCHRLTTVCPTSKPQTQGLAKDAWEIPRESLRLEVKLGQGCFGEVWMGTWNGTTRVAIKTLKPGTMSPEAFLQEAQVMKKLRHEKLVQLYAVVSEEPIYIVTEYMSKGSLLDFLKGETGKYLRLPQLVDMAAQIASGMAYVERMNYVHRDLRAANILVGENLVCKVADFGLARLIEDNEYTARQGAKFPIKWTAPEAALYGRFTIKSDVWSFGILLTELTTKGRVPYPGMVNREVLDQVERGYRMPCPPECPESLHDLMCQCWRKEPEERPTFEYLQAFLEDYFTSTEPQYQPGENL
Chain of Flt-1 (P17948 27-1338, species assumed): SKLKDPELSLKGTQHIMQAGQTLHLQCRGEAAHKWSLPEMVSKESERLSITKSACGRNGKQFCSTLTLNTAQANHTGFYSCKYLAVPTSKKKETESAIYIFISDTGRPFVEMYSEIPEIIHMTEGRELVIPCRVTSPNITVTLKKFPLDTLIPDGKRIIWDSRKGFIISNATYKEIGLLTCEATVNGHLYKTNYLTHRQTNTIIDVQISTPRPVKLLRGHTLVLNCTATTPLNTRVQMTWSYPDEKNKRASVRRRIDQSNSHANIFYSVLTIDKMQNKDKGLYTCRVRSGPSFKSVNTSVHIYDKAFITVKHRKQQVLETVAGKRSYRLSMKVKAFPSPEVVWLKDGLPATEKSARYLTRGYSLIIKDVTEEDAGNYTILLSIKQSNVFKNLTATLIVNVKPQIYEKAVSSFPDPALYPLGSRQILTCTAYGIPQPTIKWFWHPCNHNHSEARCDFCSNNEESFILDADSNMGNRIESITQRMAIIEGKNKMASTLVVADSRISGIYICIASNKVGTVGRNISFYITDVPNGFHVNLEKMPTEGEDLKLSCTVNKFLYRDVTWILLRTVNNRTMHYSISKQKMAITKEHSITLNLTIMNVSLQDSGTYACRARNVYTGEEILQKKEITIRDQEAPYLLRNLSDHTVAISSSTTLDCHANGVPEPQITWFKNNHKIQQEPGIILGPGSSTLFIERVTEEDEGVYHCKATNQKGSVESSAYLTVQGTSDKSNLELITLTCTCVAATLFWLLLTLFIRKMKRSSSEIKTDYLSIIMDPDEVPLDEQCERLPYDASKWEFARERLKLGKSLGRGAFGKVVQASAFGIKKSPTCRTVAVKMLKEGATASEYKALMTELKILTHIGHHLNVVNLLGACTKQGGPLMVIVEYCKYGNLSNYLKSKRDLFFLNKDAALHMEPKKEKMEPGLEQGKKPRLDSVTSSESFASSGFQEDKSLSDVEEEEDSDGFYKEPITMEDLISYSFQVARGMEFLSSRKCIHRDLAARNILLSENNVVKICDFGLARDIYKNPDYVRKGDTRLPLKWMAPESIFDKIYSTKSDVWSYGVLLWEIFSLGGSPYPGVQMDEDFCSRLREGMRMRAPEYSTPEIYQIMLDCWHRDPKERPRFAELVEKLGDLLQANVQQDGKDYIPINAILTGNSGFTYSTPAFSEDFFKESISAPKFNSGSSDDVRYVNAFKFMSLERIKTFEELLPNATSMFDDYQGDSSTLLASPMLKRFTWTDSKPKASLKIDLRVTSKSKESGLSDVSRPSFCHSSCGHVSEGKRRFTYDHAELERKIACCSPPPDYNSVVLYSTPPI
Chain of c-Abl (P00519 whole entry): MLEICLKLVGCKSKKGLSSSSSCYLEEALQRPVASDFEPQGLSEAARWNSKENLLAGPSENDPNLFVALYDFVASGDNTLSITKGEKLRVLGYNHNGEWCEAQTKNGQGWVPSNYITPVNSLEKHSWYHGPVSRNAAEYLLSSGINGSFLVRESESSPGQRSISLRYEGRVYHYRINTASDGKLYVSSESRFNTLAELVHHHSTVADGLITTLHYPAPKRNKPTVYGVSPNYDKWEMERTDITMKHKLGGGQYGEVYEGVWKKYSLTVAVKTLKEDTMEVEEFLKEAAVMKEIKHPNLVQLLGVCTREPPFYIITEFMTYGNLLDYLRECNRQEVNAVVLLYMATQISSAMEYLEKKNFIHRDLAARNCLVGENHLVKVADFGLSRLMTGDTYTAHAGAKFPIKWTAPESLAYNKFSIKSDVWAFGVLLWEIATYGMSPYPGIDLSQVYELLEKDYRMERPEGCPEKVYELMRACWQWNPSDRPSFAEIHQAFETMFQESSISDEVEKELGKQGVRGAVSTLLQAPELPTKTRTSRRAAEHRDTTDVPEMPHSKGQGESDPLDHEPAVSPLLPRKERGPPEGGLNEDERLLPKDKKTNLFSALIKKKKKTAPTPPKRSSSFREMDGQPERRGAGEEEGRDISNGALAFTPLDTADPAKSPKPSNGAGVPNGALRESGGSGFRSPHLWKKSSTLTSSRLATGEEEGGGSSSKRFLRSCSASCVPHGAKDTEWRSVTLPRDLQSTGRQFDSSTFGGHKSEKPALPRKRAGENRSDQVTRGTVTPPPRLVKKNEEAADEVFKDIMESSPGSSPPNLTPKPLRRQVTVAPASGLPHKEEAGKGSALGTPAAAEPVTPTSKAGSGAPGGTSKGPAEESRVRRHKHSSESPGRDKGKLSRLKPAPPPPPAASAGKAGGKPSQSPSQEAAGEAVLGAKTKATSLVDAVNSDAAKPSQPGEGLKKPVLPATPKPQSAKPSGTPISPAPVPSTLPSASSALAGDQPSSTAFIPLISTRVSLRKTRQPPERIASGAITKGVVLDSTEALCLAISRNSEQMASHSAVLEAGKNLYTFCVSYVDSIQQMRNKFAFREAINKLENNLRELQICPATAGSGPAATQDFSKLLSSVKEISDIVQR

| SMILES | inhibition at 10 µM [1] | inhibition at 10 µM [2] | inhibition at 10 µM [3] | inhibition at 10 µM [4] | inhibition at 10 µM [5] | inhibition at 10 µM [6] | inhibition at 10 µM [7] | inhibition at 10 µM [8] | inhibition at 10 µM [9] | inhibition at 10 µM [10] | inhibition at 10 µM [11] | inhibition at 10 µM [12] |
| --- | --- | --- | --- | --- | --- | --- | --- | --- | --- | --- | --- | --- |
| O=C1NCC/C(=N\Nc2ccccn2)c2c1[nH]c1ccc(Cl)cc21 [Compound 24, 7-chloro-5-(pyridin-2-yl-hydrazono)-3,4,5,10-tetrahydro-2H-azepino[3,4-b]indol-1-one] | 92% | 91% | 79% | 72% | 85% | 73% | 82% | 88% | – | – | – | – |
| NS(=O)(=O)c1ccc(N/N=C2\CCNC(=O)c3[nH]c4ccc(Cl)cc4c32)cc1 [Compound 31, 4-[N′-(7-chloro-1-oxo-1,3,4,10-tetrahydro-2H-azepino[3,4-b]indol-5-ylidene)-hydrazino]-benzenesulfonamide] | – | – | – | – | – | – | – | 95% | – | – | – | – |
| O=C1NCC/C(=N\Nc2ccccn2)c2c1[nH]c1ccc(F)cc21 [Compound 37, 7-fluoro-5-(pyridin-2-yl-hydrazono)-3,4,5,10-tetrahydro-2H-azepino[3,4-b]indol-1-one] | 90% | 86% | – | 75% | 79% | 81% | 76% | 98% | – | – | – | – |
| O=C1NCC/C(=N\Nc2cccnc2)c2c1[nH]c1ccc(Cl)cc21 [Compound 33, 7-chloro-5-(pyridin-3-yl-hydrazono)-3,4,5,10-tetrahydro-2H-azepino[3,4-b]indol-1-one] | 78% | – | – | – | – | 70% | – | 97% | 97% | – | – | – |
| NC1=NC(=O)/C(=C2\CCNC(=O)c3[nH]c4ccc(F)cc4c32)N1 [Compound 12, 5-(2-amino-5-oxo-3,5-dihydro-imidazol-4-ylidene)-7-fluoro-3,4,5,10-tetrahydro-2H-azepino[3,4-b]indol-1-one] | 89% | – | 86% | – | – | – | – | 99% | – | 70% | 89% | 74% |
